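Values below derive from 48-hour exposures of cells grown in 96-well plates, with endpoints linearly interpolated between the two concentrations bracketing the appropriate inhibition level. At the GI50, growth is halved.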 Activity calls are given as the source filed them. Rule as the data show it: active = GI50 up to about 1.1 µM and inactive = higher.
Assays:
Assay in all cases: growth of human tumour cells (NCI), 48 h
UACC-62 = tested on: UACC-62
Hs-578T = tested on: Hs-578T
MDA-MB-435 = tested on: MDA-MB-435
HCT-15 = tested on: HCT-15
SK-MEL-2 = tested on: SK-MEL-2
K562 = tested on: K562
A549 = tested on: A549
SF-268 = tested on: SF-268
PC-3 = tested on: PC-3
RXF 393 = tested on: RXF 393
CAKI-1 = tested on: CAKI-1
DU-145 = tested on: DU-145
NCI-H460 = tested on: NCI-H460
LOX IMVI = tested on: LOX IMVI
BT-549 = tested on: BT-549
NCI-H226 = tested on: NCI-H226
SF-539 = tested on: SF-539
NCI-H23 = tested on: NCI-H23
HOP-92 = tested on: HOP-92

SMILES | GI50 (UACC-62) | GI50 (Hs-578T) | GI50 (MDA-MB-435) | GI50 (HCT-15) [µM] | GI50 (SK-MEL-2) | GI50 (K562) | GI50 (A549) | GI50 (SF-268) | GI50 (PC-3) | GI50 (RXF 393) | GI50 (CAKI-1) | GI50 (DU-145) | GI50 (NCI-H460) | GI50 (LOX IMVI) | GI50 (BT-549) | GI50 (NCI-H226) | GI50 (SF-539) | GI50 (NCI-H23) | GI50 (HOP-92)
Cc1ccc(S(=O)(=O)O)cc1.c1cc2c(c(NC3=NCCN3)c1)CCCC2 | > 100 µM (inactive) | > 100 µM (inactive) | > 100 µM (inactive) | > 100 | > 100 µM (inactive) | > 100 µM (inactive) | > 100 µM (inactive) | > 100 µM (inactive) | > 100 µM (inactive) | > 100 µM (inactive) | > 100 µM (inactive) | > 100 µM (inactive) | > 100 µM (inactive) | > 100 µM (inactive) | > 100 µM (inactive) | > 100 µM (inactive) | > 100 µM (inactive) | > 100 µM (inactive) | > 100 µM (inactive)
O=C(Cc1ccccc1)Nn1c(-c2ccccc2)nc2ccccc2c1=O | > 100 µM (inactive) | 42.3 µM (inactive) | > 100 µM (inactive) | – | – | > 100 µM (inactive) | > 100 µM (inactive) | > 100 µM (inactive) | > 100 µM (inactive) | > 100 µM (inactive) | – | > 100 µM (inactive) | > 100 µM (inactive) | > 100 µM (inactive) | > 100 µM (inactive) | > 100 µM (inactive) | > 100 µM (inactive) | > 100 µM (inactive) | > 100 µM (inactive)
Oc1ccc(/N=C/c2ccc(/C=N/c3ccc(O)cc3)cc2)cc1 | 12.6 µM (inactive) | 23.6 µM (inactive) | 16.3 µM (inactive) | 15 | 21.2 µM (inactive) | 17.5 µM (inactive) | 19.2 µM (inactive) | 15.5 µM (inactive) | 16.3 µM (inactive) | 17.1 µM (inactive) | 20 µM (inactive) | 18 µM (inactive) | 24.4 µM (inactive) | 16.1 µM (inactive) | 17.4 µM (inactive) | 14.6 µM (inactive) | 15.3 µM (inactive) | 17.1 µM (inactive) | 24.7 µM (inactive)
CC1(c2ccc(Cl)s2)CC(c2ccc(Cl)s2)=C(C#N)C(=C(C#N)C#N)N1 (stereo not drawn) | 15.8 µM (inactive) | 29.5 µM (inactive) | 18.4 µM (inactive) | 17.4 | 18.6 µM (inactive) | 29.6 µM (inactive) | 22.4 µM (inactive) | 20.7 µM (inactive) | 17.6 µM (inactive) | 16.9 µM (inactive) | 19.1 µM (inactive) | 16.9 µM (inactive) | 29 µM (inactive) | 22.3 µM (inactive) | 20.9 µM (inactive) | 26.9 µM (inactive) | 26.3 µM (inactive) | 21.2 µM (inactive) | 15.4 µM (inactive)
CC(=O)N1C(Nc2ccccn2)CCN1c1ccccc1 (stereo not drawn) | – | > 10 µM (inactive) | > 10 µM (inactive) | > 10 | > 10 µM (inactive) | > 10 µM (inactive) | > 10 µM (inactive) | > 10 µM (inactive) | > 10 µM (inactive) | > 10 µM (inactive) | > 10 µM (inactive) | > 10 µM (inactive) | > 10 µM (inactive) | > 10 µM (inactive) | > 10 µM (inactive) | > 10 µM (inactive) | > 10 µM (inactive) | > 10 µM (inactive) | > 10 µM (inactive)
Cc1ccc([N+](=O)[O-])cc1S(=O)(=O)Nc1ccc(C2=NN(C(=O)c3ccccc3)C(c3cccs3)C2)cc1 (stereo not drawn) | – | 27 µM (inactive) | 33.1 µM (inactive) | 21 | 14.9 µM (inactive) | 22.1 µM (inactive) | 19.5 µM (inactive) | 20 µM (inactive) | 21.9 µM (inactive) | 15.2 µM (inactive) | 26.2 µM (inactive) | 34.2 µM (inactive) | – | 30.8 µM (inactive) | 25.3 µM (inactive) | 21.5 µM (inactive) | 18.2 µM (inactive) | 15.6 µM (inactive) | 12.6 µM (inactive)
CC(NC(=O)C(C)C(=O)NCc1ccc(C(F)(F)F)cc1)C(N)=O (stereo not drawn) | > 100 µM (inactive) | > 100 µM (inactive) | > 100 µM (inactive) | > 100 | > 100 µM (inactive) | > 100 µM (inactive) | > 100 µM (inactive) | > 100 µM (inactive) | > 100 µM (inactive) | > 100 µM (inactive) | > 100 µM (inactive) | > 100 µM (inactive) | > 100 µM (inactive) | – | 84.7 µM (inactive) | > 100 µM (inactive) | > 100 µM (inactive) | > 100 µM (inactive) | > 100 µM (inactive)
CC(=O)OC1C(C)OC(OC(=O)C2CCC3C(C2)OC2(CC(OC(=O)/C=C/c4ccccc4)C(C)CO2)C32CO2)C(OC2OC(C)C(O)C(OC(C)=O)C2O)C1O (stereo not drawn) | < 0.01 µM (active) | < 0.01 µM (active) | < 0.01 µM (active) | 0.319 | < 0.01 µM (active) | < 0.01 µM (active) | < 0.01 µM (active) | < 0.01 µM (active) | < 0.01 µM (active) | < 0.0152 µM (active) | 0.245 µM (active) | < 0.01 µM (active) | < 0.01 µM (active) | < 0.01 µM (active) | < 0.01 µM (active) | < 0.01 µM (active) | < 0.01 µM (active) | < 0.01 µM (active) | < 0.01 µM (active)
C/C(=N\Nc1nc2cc(C(F)(F)F)ccc2s1)c1ccccn1 | 0.303 µM (active) | 1.91 µM (inactive) | 0.469 µM (active) | 0.0993 | 0.594 µM (active) | 0.266 µM (active) | 0.593 µM (active) | 0.333 µM (active) | 1.67 µM (inactive) | 1.36 µM (inactive) | 0.0537 µM (active) | 0.401 µM (active) | 0.452 µM (active) | 0.287 µM (active) | 3.35 µM (inactive) | 0.124 µM (active) | 1.42 µM (inactive) | 0.452 µM (active) | 0.593 µM (active)
CC(=O)OC1COC(Nc2nc(N)n(C)c(=O)c2N=O)C(OC(C)=O)C1OC(C)=O (stereo not drawn) | > 10 µM (inactive) | > 10 µM (inactive) | > 10 µM (inactive) | – | > 10 µM (inactive) | – | > 10 µM (inactive) | > 10 µM (inactive) | > 10 µM (inactive) | > 10 µM (inactive) | > 10 µM (inactive) | > 10 µM (inactive) | > 10 µM (inactive) | > 10 µM (inactive) | > 10 µM (inactive) | > 10 µM (inactive) | > 10 µM (inactive) | > 10 µM (inactive) | > 10 µM (inactive)
O=C1c2cc(I)ccc2N2CCN=C2N1Cc1ccccc1 | – | 72.1 µM (inactive) | > 100 µM (inactive) | > 100 | > 100 µM (inactive) | > 100 µM (inactive) | > 100 µM (inactive) | > 100 µM (inactive) | > 100 µM (inactive) | 23.7 µM (inactive) | > 100 µM (inactive) | > 100 µM (inactive) | > 100 µM (inactive) | > 100 µM (inactive) | 49.9 µM (inactive) | > 100 µM (inactive) | 37.5 µM (inactive) | > 100 µM (inactive) | 17.7 µM (inactive)
O=c1cc(N2CCCC2)[nH]c(=O)n1-c1cccc(Cl)c1 | > 100 µM (inactive) | > 100 µM (inactive) | > 100 µM (inactive) | > 100 | > 100 µM (inactive) | > 100 µM (inactive) | – | > 100 µM (inactive) | > 100 µM (inactive) | > 100 µM (inactive) | > 100 µM (inactive) | > 100 µM (inactive) | > 100 µM (inactive) | > 100 µM (inactive) | > 100 µM (inactive) | > 100 µM (inactive) | > 100 µM (inactive) | > 100 µM (inactive) | > 100 µM (inactive)
O=[N+]([O-])c1ncc(N(CCO)CCO)s1 | 19.8 µM (inactive) | 32.1 µM (inactive) | 34.8 µM (inactive) | 33.3 | 21.6 µM (inactive) | 20.8 µM (inactive) | – | 40.3 µM (inactive) | 41.3 µM (inactive) | 16.7 µM (inactive) | > 100 µM (inactive) | 65.9 µM (inactive) | 61.2 µM (inactive) | 15.6 µM (inactive) | 26.5 µM (inactive) | > 100 µM (inactive) | 14.4 µM (inactive) | 41 µM (inactive) | –
CC1(C)[C@@H]2C[C@H]1C(Cc1cccc(C[C@H]3c4cc(-c5ccccn5)ncc4[C@H]4C[C@@H]3C4(C)C)c1)c1cc(-c3ccccn3)ncc12 (stereo partly drawn) | 0.499 µM (active) | > 100 µM (inactive) | 0.548 µM (active) | 1.09 | 12.9 µM (inactive) | 0.435 µM (active) | 0.518 µM (active) | 0.513 µM (active) | 0.875 µM (active) | 8.41 µM (inactive) | 1.74 µM (inactive) | 0.993 µM (active) | 0.689 µM (active) | 0.556 µM (active) | 5.06 µM (inactive) | – | 1.28 µM (inactive) | 1.82 µM (inactive) | –
O=C1/C(=N/CCc2cc(Br)c(O)c(Br)c2)C=C(O)c2cccnc21 | 1.51 µM (inactive) | 1.49 µM (inactive) | 0.344 µM (active) | 2.36 | 1.52 µM (inactive) | 1.56 µM (inactive) | 2.1 µM (inactive) | 2.19 µM (inactive) | 3.92 µM (inactive) | 2.24 µM (inactive) | 5.04 µM (inactive) | 1.45 µM (inactive) | 1.17 µM (inactive) | 0.634 µM (active) | 1.37 µM (inactive) | 1.87 µM (inactive) | 0.918 µM (active) | 0.502 µM (active) | 7.94 µM (inactive)
c1cc(C[S+]2CCCC2)ccc1C[S+]1CCCC1 | > 100 µM (inactive) | > 100 µM (inactive) | > 100 µM (inactive) | > 100 | – | > 100 µM (inactive) | 65.5 µM (inactive) | > 100 µM (inactive) | > 100 µM (inactive) | > 100 µM (inactive) | > 100 µM (inactive) | > 100 µM (inactive) | > 100 µM (inactive) | > 100 µM (inactive) | > 100 µM (inactive) | > 100 µM (inactive) | > 100 µM (inactive) | > 100 µM (inactive) | > 100 µM (inactive)

— ChEMBL document CHEMBL1201862, “PubChem BioAssay data set” (2004)
